# Results reported in patent publication US9012427B2, “Pharmaceutical combinations comprising a thionucleotide analog” (Alios BioPharma, Inc., priority 2012, dated 2015).
# Like-named read-outs stand apart in the source and are kept apart here.
# Tested on: genotype 1b replicon carrying the firefly luciferase reporter
# Assay: HCV replicon in vitro combination assay, dual and triple combination (Example 1)
# Format: cell-based
# Details: Hepatitis C virus, 72 h, read-out: Individual IC50 values
# Experimental: All compounds were dissolved in 100% DMSO (dimethyl sulfoxide) to a stock concentration of 10 mM and stored at −20° C. Serial 2-fold or 3-fold dilution series of compounds were prepared in 100% DMSO at 400-fold of the final concentration to be used in cell culture experiments that would result in a final DMSO concentration of 0.25% in growth medium.
# Drug combination studies were carried out using the transient replicon system. On day one, in vitro transcribed RNA of a genotype 1b replicon carrying the firefly luciferase reporter was transfected into Huh-7-ET-cured cells using Minis transfection reagent. (Lohmann V et al., “Replication of subgenomic hepatitis C virus RNAs in a hepatoma cell line” Science (1999) 285(5424):110-113, which is hereby incorporated by reference in its entirety) Ten thousand transfected cells were cultured in complete DMEM medium [DMEM medium supplemented with 2 mM L-glutamine, 1× non-essential amino acids, 10% heat inactivated FBS and PenStrep (100 units/mL penicillin and 100 ug/mL streptomycin)] in the central 60 wells of 96-well, flat bottom, tissue culture treated plates and cultured at 37° C./5% CO2 humidified incubator for 24 h. The next day, compounds were serially diluted (2× or 3× dilution series) in 100% DMSO, mixed together in a checkerboard fashion and added to cells, and the plates were returned to the incubator for an additional 72 h. […] At the end of the incubation, cells from one set of the plates were lysed and the luciferase activity was measured using a luciferase assay kit. […]
# The effects of dual combinations were evaluated using the Bliss independence model. (Greco et al., “The search for synergy: a critical review from a response surface perspective” Pharmacol. Rev. (1995) 47(2):331-385, which is hereby incorporated by reference in its entirety) The experimental data (RLU) was analyzed by using MacSynergy, a three-dimensional analytical method developed by Prichard and Shipman. […] The volume of the peak or depression is calculated to quantify the overall synergy or antagonism produced.
# [1] = single compound, genotype 1b transient replicon in Huh-7-ET-cured cells, n = 3
Compound,IC50,IC50 [1]
CC(C)OC(=O)[C@H](C)N[P@](=S)(OC[C@H]1O[C@@H](n2ccc(=O)[nH]c2=O)[C@](C)(O)[C@@H]1O)Oc1ccccc1 [Compound 1004],357 nM,
"COc1ccc2c(O[C@@H]3C[C@H]4C(=O)N[C@]5(C(=O)NS(=O)(=O)C6CC6)C[C@H]5/C=C\CCCCN(C)C(=O)[C@@H]4C3)cc(-c3nc(C(C)C)cs3)nc2c1C [Compound 3013, TMC-435]",,2.1 nM
"COC(=O)N[C@H](C(=O)N1CCC[C@H]1c1ncc(-c2ccc(-c3ccc(-c4cnc([C@@H]5CCCN5C(=O)[C@@H](NC(=O)OC)C(C)C)[nH]4)cc3)cc2)[nH]1)C(C)C [Compound 3043, Daclatasvir]",,0.0114 nM
